Laboratory results: patent publication US9006226B2, “Dihydropteridinones I” (Boehringer Ingelheim International GmbH, priority 2012, dated 2015)

test system: Aβ42; assay: Aβ42 vs. Aβ total production in H4 neuroglioma cells stably expressing human APP695 (Meso Scale Discovery electrochemiluminescence assay); type: cell-based; conditions: the higher the ratio, the more specific the inhibition of Aβ42
Experimental: Cells were plated out to near confluency. The compounds to be tested were received as 10 mM stocks in 100% DMSO. A dilution series was initially generated in 100% DMSO and then diluted 200-fold in cell culture media such that the tested concentration range was 30 μM to 0.1 nM and the final DMSO concentration was 0.5%. The diluted compounds were incubated with the cells for 22 hours in an incubator at 37° C. and 5% CO2. Aβ42 as well as Aβ total levels were then measured post-incubation from the supernatant of the cells. Aβ42 levels were determined using a specific electrochemiluminescence assay provided by Meso Scale Discovery (Catalog #L21CA-1) according to the manufacturer's protocol. Aβ total levels were likewise determined using a specific electrochemiluminescence assay provided by Meso Scale Discovery (Catalog #L21ZA-1) according to the manufacturer's protocol.
In order to absolutely define the described compounds as modulators of γ-Secretase as opposed to simply inhibitors of γ-Secretase, measurements of not only Aβ42 but also Aβ total are performed.

| SMILES | Ratio Aβ(total)/Aβ42 (Aβ total IC50/Aβ42 IC50) |
| --- | --- |
| COc1cc(Nc2ncc3c(n2)N2CCCC2C(=O)N3C)ccc1-n1cnc(C)c1 (stereo not shown) [Example 11] | >310 |
| CCN1C(=O)C2CCCCCN2c2nc(Nc3ccc(-n4ccnc4)c(OC)c3)ncc21 (stereo not shown) [Example 5-2] | 64 |
| COc1cc(Nc2ncc3c(n2)N2CCCCCC2C(=O)N3C)ccc1-n1cnc(C)c1 (stereo not shown) [Example 2] | 59 |
| CCCN1C(=O)C2CCCCCN2c2nc(Nc3ccc(-n4cnc(C)c4)c(OC)c3)ncc21 (stereo not shown) [Example 4] | 44 |
| CN1C(=O)C2CCCN2c2nc(Nc3ccc(-c4cnn(C)c4)nc3)ncc21 (stereo not shown) [Example 12-2] | >5 |
| CCN1C(=O)C2CCCCCN2c2nc(Nc3ccc(-c4cnc(C)s4)c(OC)c3)ncc21 (stereo not shown) [Example 5-5] | 13 |
| CCCN1C(=O)C2CCCCCN2c2nc(Nc3ccc(-c4ccnc(C)c4)cc3)ncc21 (stereo not shown) [Example 5] | 14 |
| CCc1nc(Nc2ccc(-n3cnc(C)c3)c(OC)c2)nc2c1NC(=O)[C@@H]1C[C@@H](OC)CN21 [Example 17] | 68 |
| CCN1C(=O)C2CCCCCN2c2nc(Nc3ccc(-n4cnc(C)c4)cc3OC)ncc21 (stereo not shown) [Example 5-7] | 3 |
| Cc1cn(-c2ccc(Nc3ncc4c(n3)N3CCCC3C(=O)N4C)cc2F)cn1 (stereo not shown) [Example 12-3] | >27 |
| CCc1nc(Nc2ccc(-n3cnc(C)c3)c(C#N)c2)nc2c1NC(=O)[C@@H]1C[C@@H](OC)CN21 [Example 16] | 33 |
| CCc1nc(Nc2ccc(-n3cnc(C)c3)c(C#N)c2)nc2c1N(C)C(=O)[C@@H]1C[C@@H](OC)CN21 [Example 15] | 36 |
| CCN1C(=O)C2CCCCCN2c2nc(Nc3cnc(-n4cnc(C)c4)c(OC)c3)ncc21 (stereo not shown) [Example 5-4] | >175 |
| CCc1nc(Nc2ccc(-c3cnc(C)o3)nc2)nc2c1N(C)C(=O)C1CCCN21 (stereo not shown) [Example 9] | >24 |
| COc1cc(Nc2ncc3c(n2)N2CCCC2C(=O)N3C)ccc1-n1ncnc1C (stereo not shown) [Example 12-4] | >39 |
| COc1cc(Nc2nc(SC)c3c(n2)N2CCCCC2C(=O)N3C)ccc1-n1cnc(C)c1 (stereo not shown) [Example 13] | 14 |
| CCc1nc(Nc2ccc(-n3cnc(C)c3)c(OC)c2)nc2c1NC(=O)C1CCCN21 (stereo not shown) [Example 7] | 98 |
| CCc1nc(Nc2ccc(-n3cnc(C)c3)c(OC)c2)nc2c1NC(=O)[C@H]1[C@@H](c3ccc(F)cc3)CCN21 (racemic) [Example 22] | 71 |
| CCN1C(=O)C2CCCCCN2c2nc(Nc3ccc(-c4ccnc(C)c4)cc3)ncc21 (stereo not shown) [Example 3] | 17 |
| CCc1nc(Nc2ccc(-n3cnc(C)c3)c(OC)c2)nc2c1N(C)C(=O)[C@@H]1C[C@@H](OC)CN21 [Example 14] | 67 |
| CCc1nc(Nc2ccc(-c3cnc(C)o3)c(OC)c2)nc2c1NC(=O)[C@@H]1C[C@@H](OC)CN21 [Example 19] | 82 |
| CCc1nc(Nc2ccc(-c3ccnc(C)c3)cc2)nc2c1N(C)C(=O)C1CCCN21 (stereo not shown) [Example 8] | 62 |
| CCc1nc(Nc2ccc(-n3cnc(C)c3)c(OC)c2)nc2c1N(C)C(=O)C1CCCN21 (stereo not shown) [Example 6] | 96 |
| CCN1C(=O)C2CCCCCN2c2nc(Nc3ccc(-n4cnc(C)c4)cc3)ncc21 (stereo not shown) [Example 5-6] | 43 |
| COc1cc(Nc2ncc3c(n2)N2CCCC2C(=O)N3C)ccc1-n1cnc(C)n1 (stereo not shown) [Example 12-1] | >10 |

Continued, values first:

| Ratio Aβ(total)/Aβ42 (Aβ total IC50/Aβ42 IC50) | SMILES |
| --- | --- |
| 66 | COc1cc(Nc2nc(C(C)C)c3c(n2)N2CCCC2C(=O)N3C)ccc1-n1cnc(C)c1 (stereo not shown) [Example 32] |
| 70 | CCc1nc(Nc2ccc(-n3cnc(C)c3)c(OC)c2)nc2c1NC(=O)[C@@]1(C)[C@@H](OC)CN21 (racemic) [Example 27] |
| 30 | CC(C)Cc1nc(Nc2ccc(-c3cnn(C)c3)cc2)nc2c1N(C)C(=O)C1CCCN21 (stereo not shown) [Example 34] |
| 90 | CCc1nc(Nc2ccc(-n3cnc(C)c3)c(OC)c2)nc2c1N(C)C(=O)[C@H]1[C@H](c3ccc(F)cc3)CCN21 (racemic) [Example 23] |
| 55 | COc1cc(Nc2ncc3c(n2)N2CCCOC2(C)C(=O)N3C)ccc1-n1cnc(C)c1 (stereo not shown) [Example 31] |
| 73 | CCc1nc(Nc2ccc(-n3cnc(C)c3)c(OC)c2)nc2c1N(C)C(=O)[C@]1(C)C[C@@H](OC)CN21 [Example 25] |
| 76 | CCc1nc(Nc2ccc(-n3cnc(C)c3)c(OC)c2)nc2c1N(C)C(=O)C1COCCN21 (stereo not shown) [Example 29] |
| 12 | COc1cc(Nc2nc(C(C)C)c3c(n2)N2CCN(C(=O)OC(C)(C)C)CC2C(=O)N3C)ccc1-n1cnc(C)c1 (stereo not shown) [Example 37] |
| 86 | CCc1nc(Nc2ccc(-n3cnc(C)c3)c(OC)c2)nc2c1N(C)C(=O)C1CCCCN21 (stereo not shown) [Example 36] |
| 71 | Cc1cn(-c2ccc(Nc3nc(CC(C)C)c4c(n3)N3CCCC3C(=O)N4C)cc2C#N)cn1 (stereo not shown) [Example 35] |
| 96 | COc1cc(Nc2ncc3c(n2)N2CCCOCC2C(=O)N3)ccc1-n1cnc(C)c1 (stereo not shown) [Example 30] |
| 29 | CCc1nc(Nc2ccc(-n3cnc(C)c3)c(OC)c2)nc2c1NC(=O)C1COCCN21 (stereo not shown) [Example 28] |
